From US3971814A, “Benzo(b)thiophene derivatives” (priority 1972, dated 1976)
Entries after “also recorded” stand apart in the source; their conditions may differ.

Key:
[1] = system: Yeast Edema of the Rat Paw; test: Yeast edema and determination of pain threshold in the rat paw; format: in vivo; settings: 3 h; for Volume (increase in paw volume, blank control = 100%) / Pain Threshold (change vs initial value): i.g.
Procedure: test animals are male rats (SIV 50) weighing 100 to 180 g. […] 10 animals belonged to each dosage group.
The volume of the paw is determined according to the method described by Enders and Heidbrink, the pain threshold according to that described by Randall and Selitto (Arch. Int. Pharmacodyn CXI: 409, 1957).
Following initial measurements, […] of a 5% suspension of dried yeast is injected subplantarly into the right paw and the test substances are administered immediately. The blank control group is given Tragacanth mucilage only. After 3 hours the pain threshold and the volume of the paw are determined again.
The mean value of the increase in paw volume of the animals of the blank control after 3 hours is rated 100%, and the mean value of the increase in paw volume of the animals of the substance groups expressed as a percentage thereof. Pain threshold after 3 hours reflects the increase or decrease in percent, compared to the initial value.
In order to be able to calculate the ED50 according to the method by Lichtfield and Wilcoxon (J.P.E.T. 96:99, 1949), those animals in a dose group are considered protected when the paw swelling was at least 40% less than that of the blank control.

[2] = system: Carrageenin Edema of the Rat Paw; test: Carrageenin edema of the rat paw; format: in vivo
Procedure: test animals used are the same as stated under Example B and up to the initial measurement, the procedure corresponded to that described under this example.
After an initial measurement, the test substances are administered and after 60 minutes a 1% Carrageenin suspension is injected subplantarly (0.1 ml/paw). After 60 and 180 minutes the paw volume is again determined. Here, too, the blank control group was treated with the carrier alone.
The increase in the volume of the paw after 60 minutes is considered as the first phase of the biphase edema and that after 180 minutes, as compared to the 60-minute-value, as the second phase. Moreover, the total increase of the paw edema within 180 minutes, as compared to the initial value, is also determined.
Determination of the influence exerted by the substances upon the development of the paw edema and calculation of the ED50 are done as under Example B.

[3] = system: Kaolin Edema of the Rat Paw; test: Kaolin edema of the rat paw; format: in vivo
Procedure: test animals used are the same as stated under Example B and up to the beginning of the test, the procedure corresponded to that described under this example.
After an initial measurement, a sterile 25% kaolin suspension was injected (0.05 ml/paw) subplantarly. The test substances are administered immediately, and after 60, 120, and 180 minutes the paw volume is again determined.
Evaluation of the tests was performed as stated under Example C, and the results so obtained presented below: […]

[4] = system: Granulation Tissue; test: Cotton-pellet test (granulation tissue); format: in vivo; settings: rat; for Granulation Tissue % (Dry Weight) / Increase in Body Weight: i.g.
Procedure: test animals are male rats (SIV 50) weighing 110 to 200 g. All test animals are kept fasting for 16 to 18 hours prior to the implantation of the pellets; after that food and water were available ad libitum. Each dose level of the chemical tested was administered to 12 animals. The substances were suspended in 1% Tragacanth mucilage and administered intragastrically by means of a stomach tube. The substances to be investigated and the control suspensions are administered once on the operating day following operation, and twice a day on the following 6 days (at intervals of 6 to 8 hours). The type of application and volume of liquid corresponded to that under B.
Under light ether anesthesia 4 sterile cotton pellets were implanted under the skin on the back of the animal. The weight of one pellet was 50 mg ± 0.5 mg. After 7 days treatment, the animals were sacrificed, the pellets removed with the granulation tissue, weighed and then dried in the incubator at +80°C to constant weight. The average dry weight of the granulation tissue of the control group was rated 100%, and deviations of the mean weights of the group treated with the test substance determined as a percentage thereof.
The weight of the animals is measured daily throughout the tests, and the percental increase determined. At the end of some tests, moreover, the suprarenal glands are removed and their weight determined.

[5] = system: Arthritis Induced by the Freund Adjuvant; test: Adjuvant arthritis; format: in vivo; settings: rat, i.g.
Procedure: test animals used are the same as described under Example E; food and water is given ad libitum.
On the first day of the test a 0.8% suspension of Mycobacterium butyrium in paraffin (0.05 or 0.1 ml/paw) is injected subplantarly into the left hind paw of the animals. […] From the 19th to the 22nd day the animals showing a reaction are treated intragastrically with the test substances. The right paw having been marked above the ankle-joint, the volume is determined daily from the 19th to the 22nd or 23rd day, according to the process described under Example B.
The volume of liquid, as well as of the carrier administered, corresponded to that described in the above tests.

[6] = system: male mice (NMRI); test: Hot-plate test (analgesia); format: in vivo; settings: mouse
Procedure: male mice (NMRI) weighing 18 to 28 g are used as test animals. The animals are placed on a copper plate constantly kept at 55°C, and the time is measured until they lick their forepaws.
Following 3 initial measurements, the test substances are administered intragastrically. Afterwards the measurements are repeated over a period of 2 hours at intervals of 30 minutes. Each dose is administered to 10 animals selected from groups of 15 animals following the initial measurements.
The test substances are administered as a suspension in 1% Tragacanth mucilage, the volume of liquid amounting to 2 ml/100 g of body weight.
For the purpose of statistical evaluation according to Litchfield and Wilcoxon, those animals in which the reaction time has been extended by at least 100% are considered protected.

[7] = system: Granuloma Pouch; test: Granuloma pouch test; format: in vivo; settings: rat, i.g., 2 × 125 mg/kg daily
Procedure: Under light ether anesthesia 25 ml of air are injected under the shaved skin of the back. 0.5 ml of croton oil/animal (0.05%) are injected into the pouch formed by the air, and evenly distributed over the back by turning the animal.
On the third day croton oil (3%, 0.5 ml/animal) is again injected into this pouch.
The average dry weights of the granuloma pouches and the quantities of secretion of the groups subjected to treatment are then compared with those of the control group and the percental deviations calculated.
At the end of some tests the suprarenal glands are removed and the weight of these organs is also determined.
The weight of the animals is measured daily and the changes determined as a percentage.

[8] = system: increased body temperature of the rat; test: Antipyresis (yeast-induced fever); format: in vivo; settings: i.g.
Procedure: test animals are male rats (SIV 50) weighing 100 to 180 g. 16 hours prior to the beginning of the test a 12% suspension of dried yeast (1 or 2 ml/100 g of body weight) is injected subcutaneously. When the maximum of the increase in body temperature is reached, following 3 to 4 initial measurements, the test substances are applied intragastrically and the development of the body temperature is observed for a period of 7 hours.
The test substances administered are suspended in Tragacanth mucilage; the volume of liquid administered amounting to 2 ml/100 g of body weight. In this test 2 control groups are used, one given sodium chloride subcutaneously (normal temperature group) and to the other group a yeast suspension is administered subcutaneously but, instead of the test substances, Tragacanth mucilage is administered intragastrically (fever control group).

[9] = Summary: calculated ED50 and therapeutic ratio; format: in vivo, rat
Procedure: From the ED50 and LD50 (A) the following therapeutic ratios for this test are calculated: […]

[10] = Overall summary of pharmacological results in words; format: in vivo
[11] = system: male mice (NMRI); settings: mouse, in vivo
[12] = system: Granulation Tissue; test: Cotton-pellet test (granulation tissue); format: in vivo; settings: rat, sc., section K; for increase in body weight %: control 27
[13] = in vivo; settings: mouse

Structure (SMILES): CCCC1C(=O)N2C(N(C)C)=Nc3ccc(C)cc3N2C1=O (stereo not drawn) [Azapropazone, 3-Dimethylamino-7-methyl-1,2-(n-propylmalonyl)-1,2-dihydro-1,2-benzotriazine-dihydrate]
- Volume (increase in paw volume, blank control = 100%) ([1]; 250.0 mg/kg): 98%
- Pain Threshold (change vs initial value) ([1]; 400.0 mg/kg): -52%
- Volume (increase in paw volume, blank control = 100%) ([1]; 400.0 mg/kg): 100%
- 1st Phase (paw edema) ([2]; 100.0 mg/kg): 72%
- 2nd Phase (paw edema) ([2]; 100.0 mg/kg): 50%
- 3 Hrs. (total paw edema) ([2]; 100.0 mg/kg): 63%
- 1st Phase (paw edema) ([2]; 400.0 mg/kg): 79%
- 2nd Phase (paw edema) ([2]; 400.0 mg/kg): 21%
- 3 Hrs. (total paw edema) ([2]; 400.0 mg/kg): 55%
- 60 Minutes (paw edema) ([3]; 250.0 mg/kg): 100%
- 120 Minutes (paw edema) ([3]; 250.0 mg/kg): 93%
- 180 Minutes (paw edema) ([3]; 250.0 mg/kg): 67%
- Granulation Tissue % (Dry Weight) ([4]; 2 × 150 mg/kg daily): 76%
- Increase in Body Weight ([4]; 2 × 150 mg/kg daily): not influenced
- Swelling ([5]; 2 × 250.0 mg/kg): 91%
- Notes (analgesic activity) ([6]; i.g.): ineffective

Structure (SMILES): CCOC(=N)c1sc2ccccc2c1O [Example 2, Ethyl 3-Hydroxy-Benzo[b]Thiophene-2-Carboximidate]
- Pain Threshold (change vs initial value) ([1]; 31.2 mg/kg): +10%
- Volume (increase in paw volume, blank control = 100%) ([1]; 31.2 mg/kg): 77%
- Pain Threshold (change vs initial value) ([1]; 62.5 mg/kg): +46%
- Volume (increase in paw volume, blank control = 100%) ([1]; 62.5 mg/kg): 50%
- Volume (increase in paw volume, blank control = 100%) ([1]; 125.0 mg/kg): 35%
- 1st Phase (paw edema) ([2]; 62.5 mg/kg): 65%
- 2nd Phase (paw edema) ([2]; 62.5 mg/kg): 73%
- 3 Hrs. (total paw edema) ([2]; 62.5 mg/kg): 62%
- 1st Phase (paw edema) ([2]; 125.0 mg/kg): 65%
- 2nd Phase (paw edema) ([2]; 125.0 mg/kg): 27%
- 3 Hrs. (total paw edema) ([2]; 125.0 mg/kg): 42%
- 1st Phase (paw edema) ([2]; 250.0 mg/kg): 29%
- 2nd Phase (paw edema) ([2]; 250.0 mg/kg): 20%
- 3 Hrs. (total paw edema) ([2]; 250.0 mg/kg): 25%
- 60 Minutes (paw edema) ([3]; 25.0 mg/kg): 36%
- 120 Minutes (paw edema) ([3]; 25.0 mg/kg): 44%
- 180 Minutes (paw edema) ([3]; 25.0 mg/kg): 50%
- 60 Minutes (paw edema) ([3]; 50.0 mg/kg): 62%
- 120 Minutes (paw edema) ([3]; 50.0 mg/kg): 40%
- 180 Minutes (paw edema) ([3]; 50.0 mg/kg): 5%
- Granulation Tissue % (Dry Weight) ([4]; 2 × 75 mg/kg daily): 78%
- Increase in Body Weight ([4]; 2 × 75 mg/kg daily): not influenced
- Granuloma Pouch Dry Weight [7]: 70%
- Increase in Body Weight [7]: not influenced
- Secretion [7]: 59%
- Swelling ([5]; 2 × 125.0 mg/kg): 81%
- analgesic activity ([6]; as shown in (H)): sufficient analgesic activity
- antipyretic effect ([8]; 150 mg/kg vs 300 mg/kg acetylsalicylic acid): considerably more effective than 300 mg/kg of acetylsalicylic acid
- antipyretic effect (decreasing body temperature) ([8]; yeast fever, vs control substances): superiority of the Example 2 substance for decreasing body temperature; also recorded: stronger than that of comparable substances
- ED50 ([9]; Rattus norvegicus): 93.1 mg/kg
- therapeutic ratio ([9]; from ED50 and LD50 (A)): 42.9
- anti-inflammatory effect ([10]; all test models): proved in all test models; also recorded: of the same order as that of the most potent commercially available anti-inflammatory preparations
- analgesic activity ([10]; compared to customary anti-inflammatory preparations): particularly marked
- anti-inflammatory effect ([10]; doses as low as 50 mg/kg): clear anti-inflammatory effect
- toxicity levels vs standard substances ([10]; in vivo): very favorable
- LD50 [11]: 3.890 mg/kg

Structure (SMILES): CCN(CC)CCNC(=N)c1sc2ccccc2c1O [Example 30]
- change in vivo at 150 mg/kg ([1]; sc., 150 mg/kg, section K (control -26)): 18%
- response vs control in vivo at 150 mg/kg ([1]; sc., 150 mg/kg, section K, read-out: volume (paw, control = 100%)): 53%
- granulation tissue % dry weight ([4]; sc., 2×75,0 mg/kg daily, section K): 68%
- granulation tissue % dry weight ([12]; 2×50,0 mg/kg daily): 82%
- increase in body weight % ([12]; 2×50,0 mg/kg daily): 27%
- increase in body weight % ([12]; 2×75,0 mg/kg daily): 27%
- LD50 ([13]; po): ~1000 mg/kg
- LD50 ([13]; sc): ~1000 mg/kg
